# Experimental data as given in patent US8268795B2 (priority 2005, dated 2012).
# Structures can show the parent of a compound that is named as a salt. Where two headings read alike, the source gives them in different places.
# Experiments:
# Type in all cases: cell-based, rabbit
# [1] = molecular target: T1, VDCC currents in cerebral artery myocytes (Oryctolagus cuniculus, UniProt P15381)
# T1 construct: Vascular smooth muscle cells were enzymatically isolated from cerebral arteries as previously described; endogenous in cells; host or cells: freshly isolated cerebral artery myocytes from control and SAH (5 days post-surgery) New Zealand white rabbits
# T1 sequence (P15381 1-2166 isoform P15381-4): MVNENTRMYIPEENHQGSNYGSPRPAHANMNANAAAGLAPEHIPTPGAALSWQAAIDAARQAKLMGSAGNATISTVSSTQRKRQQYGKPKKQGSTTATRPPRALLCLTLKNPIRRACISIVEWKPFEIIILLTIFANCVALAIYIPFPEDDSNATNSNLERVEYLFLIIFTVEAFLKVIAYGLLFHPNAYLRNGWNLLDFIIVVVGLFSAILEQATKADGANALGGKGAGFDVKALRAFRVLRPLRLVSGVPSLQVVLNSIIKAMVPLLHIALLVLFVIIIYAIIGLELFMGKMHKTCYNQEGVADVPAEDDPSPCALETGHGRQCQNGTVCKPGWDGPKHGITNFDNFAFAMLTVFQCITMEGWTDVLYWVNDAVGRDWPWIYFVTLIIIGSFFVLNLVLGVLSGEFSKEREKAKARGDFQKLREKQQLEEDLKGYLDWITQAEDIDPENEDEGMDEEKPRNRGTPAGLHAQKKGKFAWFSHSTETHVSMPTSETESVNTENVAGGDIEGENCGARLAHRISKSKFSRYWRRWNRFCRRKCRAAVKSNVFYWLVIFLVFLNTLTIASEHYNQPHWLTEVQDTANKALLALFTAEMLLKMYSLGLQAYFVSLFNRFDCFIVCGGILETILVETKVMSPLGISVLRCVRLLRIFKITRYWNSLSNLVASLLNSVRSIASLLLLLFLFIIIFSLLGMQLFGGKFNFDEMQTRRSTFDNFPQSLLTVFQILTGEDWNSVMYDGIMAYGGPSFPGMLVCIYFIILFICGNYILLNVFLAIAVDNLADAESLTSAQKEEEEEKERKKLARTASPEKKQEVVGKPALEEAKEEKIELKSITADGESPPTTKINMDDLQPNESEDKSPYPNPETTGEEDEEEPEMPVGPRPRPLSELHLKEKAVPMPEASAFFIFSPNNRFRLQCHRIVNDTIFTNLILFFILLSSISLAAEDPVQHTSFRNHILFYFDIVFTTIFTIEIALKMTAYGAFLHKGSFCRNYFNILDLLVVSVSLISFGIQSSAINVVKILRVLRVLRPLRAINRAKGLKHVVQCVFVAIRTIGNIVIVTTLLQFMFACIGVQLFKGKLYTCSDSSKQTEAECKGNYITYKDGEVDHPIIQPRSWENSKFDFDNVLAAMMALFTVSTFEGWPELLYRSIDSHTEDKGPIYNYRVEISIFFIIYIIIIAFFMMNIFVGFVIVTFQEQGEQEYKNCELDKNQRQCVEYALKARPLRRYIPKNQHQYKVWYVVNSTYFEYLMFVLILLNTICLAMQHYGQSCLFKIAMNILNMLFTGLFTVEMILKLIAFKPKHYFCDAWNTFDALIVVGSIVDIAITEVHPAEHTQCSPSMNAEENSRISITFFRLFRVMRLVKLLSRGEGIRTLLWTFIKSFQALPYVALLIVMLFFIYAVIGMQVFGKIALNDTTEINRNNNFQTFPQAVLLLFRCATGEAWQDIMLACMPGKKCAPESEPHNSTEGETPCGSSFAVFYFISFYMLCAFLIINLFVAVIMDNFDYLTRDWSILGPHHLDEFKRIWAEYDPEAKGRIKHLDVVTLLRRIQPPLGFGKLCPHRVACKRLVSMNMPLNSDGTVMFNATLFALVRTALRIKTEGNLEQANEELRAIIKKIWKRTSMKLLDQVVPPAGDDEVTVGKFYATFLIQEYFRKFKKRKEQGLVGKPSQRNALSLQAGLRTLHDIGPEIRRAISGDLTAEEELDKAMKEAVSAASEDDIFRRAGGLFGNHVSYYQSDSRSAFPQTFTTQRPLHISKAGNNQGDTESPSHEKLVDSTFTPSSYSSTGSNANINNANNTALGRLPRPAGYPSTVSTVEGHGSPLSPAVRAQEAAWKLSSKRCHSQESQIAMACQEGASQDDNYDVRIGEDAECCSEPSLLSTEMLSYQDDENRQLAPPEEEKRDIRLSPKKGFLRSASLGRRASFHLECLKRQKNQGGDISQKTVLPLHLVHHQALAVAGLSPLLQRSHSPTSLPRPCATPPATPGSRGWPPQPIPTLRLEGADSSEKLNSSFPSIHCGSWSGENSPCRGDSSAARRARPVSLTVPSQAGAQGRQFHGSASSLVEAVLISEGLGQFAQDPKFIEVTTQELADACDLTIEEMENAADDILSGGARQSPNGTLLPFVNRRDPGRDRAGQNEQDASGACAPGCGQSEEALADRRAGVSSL
# [2] = tested on: VDCC currents in cerebral artery myocytes
# [3] = tested on: small diameter cerebral arteries from control and SAH rabbits
# [4] = tested on: small diameter cerebral arteries constricted by 60 mmol/L K+; test: tissue or blood
# [5] = molecular target: T2, VDCC currents in cerebral artery myocytes (Oryctolagus cuniculus, UniProt Q02343)
# T2 construct: Vascular smooth muscle cells were enzymatically isolated from cerebral arteries as previously described; endogenous in cells; host or cells: freshly isolated cerebral artery myocytes from control and SAH (5 days post-surgery) New Zealand white rabbits
# T2 sequence (Q02343 whole entry): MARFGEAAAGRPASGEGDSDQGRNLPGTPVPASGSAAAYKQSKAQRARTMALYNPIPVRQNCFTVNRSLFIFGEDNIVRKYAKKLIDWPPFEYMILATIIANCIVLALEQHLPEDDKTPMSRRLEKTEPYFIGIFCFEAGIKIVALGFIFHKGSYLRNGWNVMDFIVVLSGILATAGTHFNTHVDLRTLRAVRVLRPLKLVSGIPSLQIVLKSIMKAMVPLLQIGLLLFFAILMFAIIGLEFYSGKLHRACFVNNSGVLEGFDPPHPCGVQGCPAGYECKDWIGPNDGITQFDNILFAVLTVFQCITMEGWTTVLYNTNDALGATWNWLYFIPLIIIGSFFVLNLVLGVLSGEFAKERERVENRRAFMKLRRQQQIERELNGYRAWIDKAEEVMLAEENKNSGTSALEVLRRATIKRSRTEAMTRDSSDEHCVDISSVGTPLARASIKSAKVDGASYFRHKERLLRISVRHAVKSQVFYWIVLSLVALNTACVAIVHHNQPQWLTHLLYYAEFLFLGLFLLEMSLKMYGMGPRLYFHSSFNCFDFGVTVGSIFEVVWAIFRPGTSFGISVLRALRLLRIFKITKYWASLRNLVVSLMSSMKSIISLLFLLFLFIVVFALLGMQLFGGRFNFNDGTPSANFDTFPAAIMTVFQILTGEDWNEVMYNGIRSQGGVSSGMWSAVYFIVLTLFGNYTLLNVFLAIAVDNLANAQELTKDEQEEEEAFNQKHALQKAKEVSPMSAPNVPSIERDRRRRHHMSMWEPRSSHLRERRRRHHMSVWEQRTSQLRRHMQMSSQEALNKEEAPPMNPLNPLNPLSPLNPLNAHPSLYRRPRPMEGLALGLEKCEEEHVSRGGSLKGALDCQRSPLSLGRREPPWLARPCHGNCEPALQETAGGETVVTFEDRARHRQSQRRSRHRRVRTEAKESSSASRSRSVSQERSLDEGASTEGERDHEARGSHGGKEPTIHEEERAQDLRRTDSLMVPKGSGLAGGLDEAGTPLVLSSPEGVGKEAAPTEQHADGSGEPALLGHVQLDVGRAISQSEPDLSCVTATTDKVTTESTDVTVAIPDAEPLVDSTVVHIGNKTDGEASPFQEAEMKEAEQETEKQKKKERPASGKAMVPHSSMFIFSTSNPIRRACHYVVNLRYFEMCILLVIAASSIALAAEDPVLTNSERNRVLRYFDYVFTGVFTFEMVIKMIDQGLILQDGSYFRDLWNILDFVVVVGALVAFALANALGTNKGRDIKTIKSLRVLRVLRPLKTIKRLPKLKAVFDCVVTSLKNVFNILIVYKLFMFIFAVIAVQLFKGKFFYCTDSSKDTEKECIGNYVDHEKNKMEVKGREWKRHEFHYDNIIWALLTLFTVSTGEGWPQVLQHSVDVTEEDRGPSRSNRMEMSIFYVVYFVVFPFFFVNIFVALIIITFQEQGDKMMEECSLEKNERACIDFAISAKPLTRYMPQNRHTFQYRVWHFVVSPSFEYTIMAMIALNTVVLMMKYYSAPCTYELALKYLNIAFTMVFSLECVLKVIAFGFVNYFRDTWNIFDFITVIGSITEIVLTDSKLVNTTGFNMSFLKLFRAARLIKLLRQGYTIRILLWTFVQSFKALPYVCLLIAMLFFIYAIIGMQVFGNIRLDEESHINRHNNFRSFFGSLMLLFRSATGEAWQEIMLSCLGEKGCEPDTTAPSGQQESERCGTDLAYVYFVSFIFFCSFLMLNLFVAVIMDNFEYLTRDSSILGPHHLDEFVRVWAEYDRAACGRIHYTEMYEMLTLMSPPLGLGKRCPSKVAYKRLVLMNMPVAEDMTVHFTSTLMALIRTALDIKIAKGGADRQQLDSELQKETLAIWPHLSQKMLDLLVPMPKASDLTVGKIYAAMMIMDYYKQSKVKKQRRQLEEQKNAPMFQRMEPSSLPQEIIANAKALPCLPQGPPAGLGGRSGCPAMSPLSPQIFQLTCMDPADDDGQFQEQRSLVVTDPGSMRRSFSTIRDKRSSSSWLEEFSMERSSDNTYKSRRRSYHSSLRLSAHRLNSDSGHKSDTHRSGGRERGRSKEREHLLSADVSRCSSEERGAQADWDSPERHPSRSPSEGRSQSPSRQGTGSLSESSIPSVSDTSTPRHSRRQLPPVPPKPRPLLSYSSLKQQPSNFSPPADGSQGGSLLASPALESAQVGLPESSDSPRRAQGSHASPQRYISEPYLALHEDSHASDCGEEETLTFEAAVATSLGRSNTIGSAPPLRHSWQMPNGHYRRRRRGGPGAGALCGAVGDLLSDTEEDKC
compound,measurement,setting,value
"COc1ccc([C@@H]2Sc3ccccc3N(CCN(C)C)C(=O)[C@@H]2OC(C)=O)cc1 (relative stereo) [diltiazem, benzothiazepin-4(5H)-one, 3-(acetyloxy)-5-[2-(dimethylamino)ethyl]-2,3-dihydro-2-(4-methoxyphenyl)-,(+)-cis-,monohydrochloride]",block of membrane currents,[1],completely blocked
same,current resistant to the L-type VDCC antagonist,[2],approximately 20%
same,pressure-induced constriction at 100 mmHg,"[3]; arteries from control animals, diltiazem 50 μmol/L",abolished
same,IC50,"[4]; Oryctolagus cuniculus, 120 h",16900 ± 6900 nM
same,EC50,"[4]; Oryctolagus cuniculus, B164, 0 h, read-out: EC50 of diltiazem treatment of K+ induced constricted arteries, Day 0, −Oxy Hb",1020 ± 70 nM
same,EC50,"[4]; Oryctolagus cuniculus, B164, 24 h, read-out: EC50 of diltiazem treatment of K+ induced constricted arteries, Day 1, +Oxy Hb",950 ± 140 nM
same,EC50,"[4]; Oryctolagus cuniculus, B164, 24 h, read-out: EC50 of diltiazem treatment of K+ induced constricted arteries, Day 1, −Oxy Hb",760 ± 70 nM
same,EC50,"[4]; Oryctolagus cuniculus, B164, 72 h, read-out: EC50 of diltiazem treatment of K+ induced constricted arteries, Day 3, +Oxy Hb",1070 ± 60 nM
same,EC50,"[4]; Oryctolagus cuniculus, B164, 72 h, read-out: EC50 of diltiazem treatment of K+ induced constricted arteries, Day 3, −Oxy Hb",780 ± 120 nM
same,EC50,"[4]; Oryctolagus cuniculus, B164, 120 h, read-out: EC50 of diltiazem treatment of K+ induced constricted arteries, Day 5, +Oxy Hb",16900 ± 6900 nM
same,EC50,"[4]; Oryctolagus cuniculus, B164, 120 h, read-out: EC50 of diltiazem treatment of K+ induced constricted arteries, Day 5, −Oxy Hb",1100 ± 100 nM
same,reduction of K+-induced constriction,"[4]; […], diltiazem 1 mmol/L, 60 mmol/L K+",99.7±0.4%
[Cd] [cadmium],VDCC currents resistant to nifedipine (10 μmol/L),"[5]; SAH myocytes, cadmium 200 μmol/L, n=4, data not shown",abolished
H-Gly-Val-Asp-Lys-Ala-Gly-Cys-Arg-Tyr-Met-Phe-Gly-Gly-Cys-Ser-Val-Asn-Asp-Asp-Cys-Cys-Pro-Arg-Leu-Gly-Cys-His-Ser-Leu-Phe-Ser-Tyr-Cys-Ala-Trp-Asp-Leu-Thr-Phe-Ser-Asp-OH (H-GVDKAGCRYMFGGCSVNDDCCPRLGCHSLFSYCAWDLTFSD-OH; cysteine pairing not given here) [SNX-482],reduction of VDCC currents,"[5]; myocytes from SAH animals, SNX-482 200 nmol/L",approximately 30%
same,effect on VDCC currents,"[1]; myocytes from control animals, SNX-482 200 nmol/L",no effect
same,dilation of pressurized cerebral arteries,"[3]; arteries from SAH animals, pressurized to 100 mmHg",approximately 30%
same,effect on pressurized arteries,"[3]; arteries from control animals, pressurized to 100 mmHg",no significant effect
same,dilation of cerebral arteries in the absence of diltiazem,"[4]; arteries constricted with 60 mmol/L K+, SNX-482 220 nmol/L alone",can dilate
same,residual constriction observed in the presence of diltiazem,"[4]; arteries cultured with oxyhemoglobin for 5 days, 60 mM K+, 1 mmol/L diltiazem, then SNX-482 220 nmol/L",effectively reversed
ω-Agatoxin IVA,peak inward currents at +20 mV,"[2]; SAH myocytes, 100 nmol/L",did not alter
ω-Conotoxin GVIA,peak inward currents at +20 mV,[2],did not alter
